Source: ChEMBL document CHEMBL1201862, “PubChem BioAssay data set” (2004)
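The compound was tested at five concentrations on cells cultured in 96-well plates, with a 48-hour exposure period. Here, GI50 denotes the concentration required for 50% inhibition of growth.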 Active and inactive are the calls of the source. No stated cut-off is given here; in the data, active = GI50 up to about 1.1 µM and inactive = higher.

Assays:
Assay in all cases: inhibition of tumour cell growth, NCI panel, 48 h
RPMI-8226 = test system: RPMI-8226
786-0 = test system: 786-0
A549 = test system: A549
NCI-H522 = test system: NCI-H522
SF-268 = test system: SF-268
HT-29 = test system: HT-29
T47D = test system: T47D
UACC-257 = test system: UACC-257
Malme-3M = test system: Malme-3M
HCT-15 = test system: HCT-15
OVCAR-5 = test system: OVCAR-5
EKVX = test system: EKVX
RXF 393 = test system: RXF 393
HCT-116 = test system: HCT-116
HOP-62 = test system: HOP-62
SK-MEL-2 = test system: SK-MEL-2
U-251 = test system: U-251
A498 = test system: A498
OVCAR-4 = test system: OVCAR-4

Compound | GI50 (RPMI-8226) | GI50 (786-0) | GI50 (A549) | GI50 (NCI-H522) | GI50 (SF-268) | GI50 (HT-29) | GI50 (T47D) | GI50 (UACC-257) | GI50 (Malme-3M) | GI50 (HCT-15) [µM] | GI50 (OVCAR-5) | GI50 (EKVX) | GI50 (RXF 393) | GI50 (HCT-116) | GI50 (HOP-62) | GI50 (SK-MEL-2) | GI50 (U-251) | GI50 (A498) | GI50 (OVCAR-4)
Cc1nnc(N)nc1/C=C\c1ccc(Cl)cc1Cl | 45.4 µM (inactive) | 40.7 µM (inactive) | 39.2 µM (inactive) | 24.2 µM (inactive) | 34.8 µM (inactive) | 20.6 µM (inactive) | 55.3 µM (inactive) | 54.6 µM (inactive) | 23.8 µM (inactive) | 23.3 | 42.5 µM (inactive) | 39.5 µM (inactive) | 39.7 µM (inactive) | 26.9 µM (inactive) | 20.3 µM (inactive) | 17 µM (inactive) | 34.8 µM (inactive) | > 100 µM (inactive) | 34.5 µM (inactive)
CN(C)P(=O)(Oc1occc1C(O)Cc1ccccc1)N(C)C (stereo unspecified) | > 100 µM (inactive) | > 100 µM (inactive) | > 100 µM (inactive) | > 100 µM (inactive) | > 100 µM (inactive) | – | > 100 µM (inactive) | > 100 µM (inactive) | > 100 µM (inactive) | > 100 | > 100 µM (inactive) | > 100 µM (inactive) | > 100 µM (inactive) | > 100 µM (inactive) | > 100 µM (inactive) | > 100 µM (inactive) | > 100 µM (inactive) | > 100 µM (inactive) | > 100 µM (inactive)
C=C1CC2(C)CCC(OC(=O)C3(C)OC3C)C(C)(OC(C)=O)C2CC1=C(C)C (stereo unspecified) | > 100 µM (inactive) | > 10 µM (inactive) | > 100 µM (inactive) | > 100 µM (inactive) | > 100 µM (inactive) | > 100 µM (inactive) | > 100 µM (inactive) | > 100 µM (inactive) | > 100 µM (inactive) | > 100 | > 100 µM (inactive) | > 100 µM (inactive) | > 100 µM (inactive) | > 100 µM (inactive) | > 100 µM (inactive) | > 100 µM (inactive) | > 100 µM (inactive) | > 100 µM (inactive) | > 100 µM (inactive)
N=C(N)SCc1ccc(N=C=S)cc1 | 12.4 µM (inactive) | 13.8 µM (inactive) | 16.3 µM (inactive) | 10 µM (inactive) | 20.2 µM (inactive) | 15.1 µM (inactive) | 13.6 µM (inactive) | 13.1 µM (inactive) | 14.3 µM (inactive) | 11.3 | 14.4 µM (inactive) | 15.9 µM (inactive) | 3.56 µM (inactive) | 14 µM (inactive) | 16.6 µM (inactive) | 10.4 µM (inactive) | 15.2 µM (inactive) | 13.9 µM (inactive) | 14.3 µM (inactive)
Cc1coc2c1CC1(C)C(CCC(O)C1C)C2 (stereo unspecified) | > 100 µM (inactive) | > 100 µM (inactive) | > 100 µM (inactive) | > 100 µM (inactive) | > 100 µM (inactive) | > 100 µM (inactive) | > 100 µM (inactive) | > 100 µM (inactive) | > 100 µM (inactive) | > 100 | > 100 µM (inactive) | > 100 µM (inactive) | > 100 µM (inactive) | > 100 µM (inactive) | > 100 µM (inactive) | > 100 µM (inactive) | > 100 µM (inactive) | > 100 µM (inactive) | > 100 µM (inactive)
C[C@]12[C@@H]3CC[C@H]1[C@@H](OC(=O)Nc1cc([N+](=O)[O-])cc([N+](=O)[O-])c1)C(=O)N2CC3 | > 100 µM (inactive) | > 100 µM (inactive) | > 100 µM (inactive) | > 100 µM (inactive) | > 100 µM (inactive) | > 100 µM (inactive) | > 100 µM (inactive) | > 100 µM (inactive) | > 100 µM (inactive) | > 100 | > 100 µM (inactive) | > 100 µM (inactive) | > 100 µM (inactive) | > 100 µM (inactive) | > 100 µM (inactive) | > 100 µM (inactive) | > 100 µM (inactive) | > 100 µM (inactive) | > 100 µM (inactive)
CC(C)C1OC(=O)C(Cc2ccccc2)N(C)C(=O)C(C(C)C)OC(=O)C(Cc2ccccc2)N(C)C(=O)C(C(C)C)OC(=O)C(Cc2ccccc2)N(C)C1=O (stereo unspecified) | 0.489 µM (active) | 1.17 µM (inactive) | 0.618 µM (active) | 0.689 µM (active) | 1.4 µM (inactive) | 0.783 µM (active) | 1.05 µM (active) | 0.748 µM (active) | 0.359 µM (active) | 0.891 | 1.03 µM (active) | 0.984 µM (active) | 0.887 µM (active) | 0.989 µM (active) | 0.838 µM (active) | 0.628 µM (active) | 0.661 µM (active) | 2.36 µM (inactive) | 0.463 µM (active)
Cc1ccc(/N=C2\SC(=NN(C)C)S\C2=N/c2ccc(C)cc2)cc1 | > 100 µM (inactive) | > 100 µM (inactive) | > 100 µM (inactive) | 4.71 µM (inactive) | > 100 µM (inactive) | > 100 µM (inactive) | > 100 µM (inactive) | > 100 µM (inactive) | > 100 µM (inactive) | > 100 | > 100 µM (inactive) | > 100 µM (inactive) | > 100 µM (inactive) | > 100 µM (inactive) | > 100 µM (inactive) | > 100 µM (inactive) | > 100 µM (inactive) | > 100 µM (inactive) | > 100 µM (inactive)
CCOC(=O)C1=C(C)N(CC(C)C)C2(O)C(OC)CC(=O)C3C(=O)N(c4ccccc4)C(=O)C132 (stereo unspecified) | 33 µM (inactive) | 66.4 µM (inactive) | 43.4 µM (inactive) | 16.5 µM (inactive) | 60.1 µM (inactive) | 20.7 µM (inactive) | 47 µM (inactive) | 37.4 µM (inactive) | 31.5 µM (inactive) | 23.3 | > 100 µM (inactive) | > 100 µM (inactive) | 20.7 µM (inactive) | 40.5 µM (inactive) | 68.7 µM (inactive) | 20.4 µM (inactive) | 45.4 µM (inactive) | 78.5 µM (inactive) | 27.7 µM (inactive)
c1ccc(CN2CCN3CCN(CC2)CCN(Cc2ccccc2)CC3)cc1 | 2.14 µM (inactive) | 4.57 µM (inactive) | 11.5 µM (inactive) | 4.36 µM (inactive) | 11.6 µM (inactive) | 3.37 µM (inactive) | 4.08 µM (inactive) | 3.04 µM (inactive) | 2.83 µM (inactive) | 32.4 | 9.48 µM (inactive) | 8.47 µM (inactive) | 5.6 µM (inactive) | 4.09 µM (inactive) | 14.2 µM (inactive) | 2.82 µM (inactive) | 4.29 µM (inactive) | 11.7 µM (inactive) | 4.04 µM (inactive)
N=C(CSSCC(=N)NCC12CC3CC(CC(C3)C1)C2)NCC12CC3CC(CC(C3)C1)C2 | 2.33 µM (inactive) | 29.9 µM (inactive) | 13.7 µM (inactive) | 15.1 µM (inactive) | 37.7 µM (inactive) | 13.6 µM (inactive) | 17.9 µM (inactive) | 14.6 µM (inactive) | 16.8 µM (inactive) | 12.2 | 17.7 µM (inactive) | – | > 100 µM (inactive) | 22.4 µM (inactive) | 32.1 µM (inactive) | 22.3 µM (inactive) | 14.3 µM (inactive) | 25.5 µM (inactive) | 14.4 µM (inactive)
COc1ccc(NC(C)=O)cc1N1C(=O)/C(=C\c2cc(OC)c(OC)c(OC)c2)SC1c1ccccc1 (stereo unspecified) | 17.4 µM (inactive) | 54 µM (inactive) | 57.8 µM (inactive) | 28.6 µM (inactive) | – | 47.1 µM (inactive) | 33.5 µM (inactive) | 67.9 µM (inactive) | 47 µM (inactive) | 38.1 | > 100 µM (inactive) | 24.9 µM (inactive) | 33.5 µM (inactive) | 30 µM (inactive) | 63.7 µM (inactive) | 57.9 µM (inactive) | 34.7 µM (inactive) | 75 µM (inactive) | 39 µM (inactive)
Cc1ccc(S(=O)(=O)NC(=O)Nc2cccc(S(N)(=O)=O)c2)cc1 | > 100 µM (inactive) | > 100 µM (inactive) | > 100 µM (inactive) | > 100 µM (inactive) | > 100 µM (inactive) | > 100 µM (inactive) | > 100 µM (inactive) | – | > 100 µM (inactive) | > 100 | > 100 µM (inactive) | > 100 µM (inactive) | > 100 µM (inactive) | > 100 µM (inactive) | > 100 µM (inactive) | > 100 µM (inactive) | > 100 µM (inactive) | > 100 µM (inactive) | > 100 µM (inactive)
CN(C)CCOC1(CC2CCCCC2)CCC(C(C)(C)C)CC1 (stereo unspecified) | 2.02 µM (inactive) | 2.48 µM (inactive) | 5.56 µM (inactive) | 1.56 µM (inactive) | 10.5 µM (inactive) | 2.43 µM (inactive) | 3.34 µM (inactive) | 4.61 µM (inactive) | 2.83 µM (inactive) | 3.75 | 5.53 µM (inactive) | 8.07 µM (inactive) | 3.72 µM (inactive) | 4.36 µM (inactive) | 4.04 µM (inactive) | 6.44 µM (inactive) | 4.74 µM (inactive) | 6.47 µM (inactive) | 6.61 µM (inactive)
O=C1C(c2c(O)[nH]c3ccc(Cl)cc23)=Nc2ccccc21 | 5.09 µM (inactive) | 1.99 µM (inactive) | 3.58 µM (inactive) | 10.6 µM (inactive) | 5.36 µM (inactive) | 5.09 µM (inactive) | 3.7 µM (inactive) | > 53.5 µM (inactive) | 5.68 µM (inactive) | 7.73 | 8.11 µM (inactive) | 5.07 µM (inactive) | 2.49 µM (inactive) | 1.98 µM (inactive) | 5.58 µM (inactive) | 5.55 µM (inactive) | 4.98 µM (inactive) | 5.01 µM (inactive) | 2.2 µM (inactive)
